biological target: T1, purified human HDAC6 (Homo sapiens, UniProt Q9UBN7); experiment: HDAC6 enzyme assay; type: biochemical; conditions: bin: less than 100 nM
T1 construct: purchased BPS Bioscience 5006
T1 sequence (Q9UBN7 1-1215): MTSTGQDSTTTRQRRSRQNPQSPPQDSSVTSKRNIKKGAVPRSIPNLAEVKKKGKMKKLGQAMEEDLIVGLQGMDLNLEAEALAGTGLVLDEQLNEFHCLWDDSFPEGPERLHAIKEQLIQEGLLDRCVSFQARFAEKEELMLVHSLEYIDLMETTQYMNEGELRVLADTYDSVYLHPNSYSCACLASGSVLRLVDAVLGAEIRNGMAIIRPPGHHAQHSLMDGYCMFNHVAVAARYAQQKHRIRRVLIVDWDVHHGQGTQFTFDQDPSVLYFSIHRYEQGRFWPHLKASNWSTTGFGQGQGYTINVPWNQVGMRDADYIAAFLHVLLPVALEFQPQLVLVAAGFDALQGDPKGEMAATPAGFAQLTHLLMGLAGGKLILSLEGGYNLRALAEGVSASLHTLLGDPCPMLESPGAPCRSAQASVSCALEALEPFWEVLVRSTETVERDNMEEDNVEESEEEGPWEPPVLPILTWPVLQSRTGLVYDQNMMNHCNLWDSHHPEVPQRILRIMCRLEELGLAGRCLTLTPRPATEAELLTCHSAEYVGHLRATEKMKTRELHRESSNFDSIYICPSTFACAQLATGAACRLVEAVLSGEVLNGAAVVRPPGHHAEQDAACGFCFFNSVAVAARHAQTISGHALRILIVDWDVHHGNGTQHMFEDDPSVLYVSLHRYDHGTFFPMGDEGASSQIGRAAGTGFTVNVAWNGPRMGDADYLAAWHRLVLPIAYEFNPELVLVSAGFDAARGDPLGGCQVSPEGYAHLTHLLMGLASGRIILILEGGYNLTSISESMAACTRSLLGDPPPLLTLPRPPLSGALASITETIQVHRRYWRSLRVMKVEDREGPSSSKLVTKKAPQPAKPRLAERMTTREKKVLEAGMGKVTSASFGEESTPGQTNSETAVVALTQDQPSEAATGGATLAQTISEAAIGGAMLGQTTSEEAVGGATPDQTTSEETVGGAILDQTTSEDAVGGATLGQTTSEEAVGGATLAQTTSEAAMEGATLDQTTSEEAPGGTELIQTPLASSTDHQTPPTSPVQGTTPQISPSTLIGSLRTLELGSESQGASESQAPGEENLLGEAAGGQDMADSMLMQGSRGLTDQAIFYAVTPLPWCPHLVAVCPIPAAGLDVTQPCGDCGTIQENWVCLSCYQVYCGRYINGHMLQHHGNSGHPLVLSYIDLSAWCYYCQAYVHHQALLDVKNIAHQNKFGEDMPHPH
Protocol: To measure the inhibition of HDAC6 activity, purified human HDAC6 (BPS Bioscience; Cat. No. 5006) is incubated with substrate Ac-Arg-Gly-Lys(Ac)-AMC peptide (Bachem Biosciences; Cat. No. I-1925) for 1 hour at 30° C. in the presence of test compounds or vehicle DMSO control. The reaction is stopped with the HDAC inhibitor trichostatin A (Sigma; Cat. No. T8552) and the amount of Arg-Gly-Lys-AMC generated is quantitated by digestion with trypsin (Sigma; Cat. No. T1426) and subsequent measurement of the amount of AMC released using a fluorescent plate reader (Pherastar; BMG Technologies) set at Ex 340 nm and Em 460 nm. Concentration response curves are generated by calculating the fluorescence increase in test compound-treated samples relative to DMSO-treated controls, and enzyme inhibition (IC50) values are determined from those curves.

| IC50 | Structure (SMILES) |
| --- | --- |
| < 0.1 µM | O=C(NO)c1cc2n(c1)CCN(Cc1ccc(C(F)(F)F)cc1)C2=O [Compound I-240, N-hydroxy-1-oxo-2-[4-(trifluoromethl)benzyl]-1,2,3,4-tetrahydropyrrolo[1,2-a]pyrazine-7-carboxamide] |
| < 0.1 µM | O=C(NO)c1cn2c(n1)CN(C(=O)Nc1ccccc1)CC2 [Compound I-116, N2-hydroxy-N7-phenyl-5,6-dihydroimidazo[1,2-a]pyrazine-2,7(8H)-dicarboxamide] |
| < 0.1 µM | Cn1c(C(=O)N2CCn3cc(C(=O)NO)cc3C2)cc2ccccc21 [Compound I-20, N-hydroxy-2-[(1-methyl-1H-indol-2-yl)carbonyl]-1,2,3,4-tetrahydropyrrolo[1,2-a]pyrazine-7-carboxamide] |
| < 0.1 µM | O=C(NO)c1cn2c(n1)CN(C(=O)c1ccc(-c3ccccc3)cc1)CC2 [Compound I-2, 7-(biphenyl-4-ylcarbonyl)-N-hydroxy-5,6,7,8-tetrahydroimidazo[1,2-a]pyrazine-2-carboxamide] |
| < 0.1 µM | O=C(NO)c1cc2n(n1)CCN(C(=O)c1ccc(OCc3ccccc3)cc1)C2 [Compound I-17, 5-[4-(benzyloxy)benzoyl]-N-hydroxy-4,5,6,7-tetrahydropyrazolo[1,5-a]pyrazine-2-carboxamide] |
| < 0.1 µM | O=C(NO)c1cc2n(c1)CCN(C(=O)c1ccc(-c3ccccc3)cc1)C2 [Compound I-51, 2-(biphenyl-4-ylcarbonyl)-N-hydroxy-1,2,3,4-tetrahydropyrrolo[1,2-a]pyrazine-7-carboxamide] |
| < 0.1 µM | O=C(NO)c1cn2c(n1)CN(C(=O)c1cc3ccccc3s1)CC2 [Compound I-44, 7-(1-benzothien-2-ylcarbonyl)-N-hydroxy-5,6,7,8-tetrahydroimidazo[1,2-a]pyrazine-2-carboxamide] |
| < 0.1 µM | O=C(NO)c1cc2n(c1)CCN(Cc1ccccc1)C2=O [Compound I-42, 2-benzyl-N-hydroxy-1-oxo-1,2,3,4-tetrahydropyrrolo[1,2-a]pyrazine-7-carboxamide] |
| < 0.1 µM | Cc1cc(C(=O)N2CCn3cc(C(=O)NO)cc3C2)c(C)o1 [Compound I-85, 2-(2,5-dimethyl-3-furoyl)-N-hydroxy-1,2,3,4-tetrahydropyrrolo[1,2-a]pyrazine-7-carboxamide] |

same assay, conditions: bins: greater than 1 μM and less than 10 μM; greater than 10 μM

| IC50 | Structure (SMILES) |
| --- | --- |
| > 10 µM | Cc1ccc(C(=O)N2CCCn3cc(C(=O)NO)cc3C2)s1 [Compound I-69, N-hydroxy-2-[(5-methyl-2-thienyl)carbonyl]-2,3,4,5-tetrahydro-1H-pyrrolo [1,2-a][1,4]diazepine-8-carboxamide] |
| 1 to 10 µM | O=C(NO)c1cc2n(c1)CCCN(C(=O)C13CC4CC(CC(C4)C1)C3)C2 [Compound I-38, 2-[1-adamantylcarbonyl]-N-hydroxy-2,3,4,5-tetrahydro-1H-pyrrolo[1,2-a][1,4]diazepine-8-carboxamide] |
| 1 to 10 µM | Cc1nc(CC(=O)N2CCn3nc(C(=O)NO)cc3C2)cs1 [Compound I-90, N-hydroxy-5-[(2-methyl-1,3-thiazol-4-yl)acetyl]-4,5,6,7-tetrahydropyrazolo[1,5-a]pyrazine-2-carboxamide] |
| 1 to 10 µM | CC1(C(=O)N2CCn3cc(C(=O)NO)nc3C2)CCCCC1 [Compound I-26, N-hydroxy-7-(1-methylcyclohexanecarbonyl)-5,6,7,8-tetrahydroimidazo[1,2-a]pyrazine-2-carboxamide] |
| > 10 µM | CC(C)(C)C(=O)N1CCn2nc(C(=O)NO)cc2C1 [Compound I-36, 5-(2,2-dimethylpropanoyl)-N-hydroxy-4,5,6,7-tetrahydropyrazolo[1,5-a]pyrazine-2-carboxamide] |
| 1 to 10 µM | O=C(NO)c1cc2n(n1)CCCN(C(=O)C13CC4CC(CC(C4)C1)C3)C2 [Compound I-72, 5-(1-adamantylcarbonyl)-N-hydroxy-5,6,7,8-tetrahydro-4H-pyrazolo[1,5-a][1,4]diazepine-2-carboxamide] |
| 1 to 10 µM | CCc1cc(C(=O)N2CCCn3cc(C(=O)NO)cc3C2)n(C)n1 [Compound I-95, 2-[(3-ethyl-1-methyl-1H-pyrazol-5-yl)carbonyl]-N-hydroxy-2,3,4,5-tetrahydro-1H-pyrrolo[1,2-a][1,4]diazepine-8-carboxamide] |
| > 10 µM | O=C(NO)c1cc2n(c1)CCCN(C(=O)C1CCCC1)C2 [Compound I-19, 2-(cyclopentylcarbonyl)-N-hydroxy-2,3,4,5-tetrahydro-1H-pyrrolo[1,2-a][1,4]diazepine-8-carboxamide] |
| 1 to 10 µM | CC(C)(C)CC(=O)N1CCCn2cc(C(=O)NO)cc2C1 [Compound I-59, 2-(3,3-dimethylbutanoyl)-N-hydroxy-2,3,4,5-tetrahydro-1H-pyrrolo[1,2-a][1,4]diazepine-8-carboxamide] |
| 1 to 10 µM | O=C(NO)c1cc2n(n1)CCN(C(=O)C13CC4CC(CC(C4)C1)C3)C2 [Compound I-16, 5-(1-adamantylcarbonyl)-N-hydroxy-4,5,6,7-tetrahydropyrazolo[1,5-a]pyrazine-2-carboxamide] |
| 1 to 10 µM | CC1(C(=O)N2CCn3nc(C(=O)NO)cc3C2)CCCCC1 [Compound I-6, N-hydroxy-5-[(1-methylcyclohexyl)carbonyl]-4,5,6,7-tetrahydropyrazolo[1,5-a]pyrazine-2-carboxamide] |
| 1 to 10 µM | Cn1c(C(=O)N2CCCn3nc(C(=O)NO)cc3C2)cc2ccccc21 [Compound I-105, N-hydroxy-5-[(1-methyl-1H-indol-2-yl)carbonyl]-5,6,7,8-tetrahydro-4H-pyrazolo[1,5-a][1,4]diazepine-2-carboxamide] |

The next lines start with the molecule.

| Structure (SMILES) | IC50 |
| --- | --- |
| O=C(NO)c1cc2n(c1)CCCN(C(=O)c1csc3ccccc13)C2 [Compound I-96, 2-(1-benzothien-3-ylcarbonyl)-N-hydroxy-2,3,4,5-tetrahydro-1H-pyrrolo[1,2-a][1,4]diazepine-8-carboxamide] | 1 to 10 µM |
| CCc1cccc(CC)c1NC(=O)N1CCn2cc(C(=O)NO)nc2C1 [Compound I-115, N7-(2,6-diethylphenyl)-N2-hydroxy-5,6-dihydroimidazo[1,2-a]pyrazine-2,7(8H)-dicarboxamide] | 1 to 10 µM |
| CC(=O)c1c(C)[nH]c(C(=O)N2CCn3cc(C(=O)NO)cc3C2)c1C [Compound I-15, 2-[(4-acetyl-3,5-dimethyl-1H-pyrrol-2-yl)carbonyl]-N-hydroxy-1,2,3,4-tetrahydropyrrolo[1,2-a]pyrazine-7-carboxamide] | 1 to 10 µM |
| Cc1cc(C(=O)N2CCCn3cc(C(=O)NO)cc3C2)c(C)o1 [Compound I-4, 2-(2,5-dimethyl-3-furoyl)-N-hydroxy-2,3,4,5-tetrahydro-1H-pyrrolo[1,2-a][1,4]diazepine-8-carboxamide] | > 10 µM |
| Cc1ccc(-c2ccc(C(=O)N3CCCn4cc(C(=O)NO)cc4C3)cc2)cc1 [Compound I-80, N-hydroxy-2-[(4′-methylbiphenyl-4-yl)carbonyl]-2,3,4,5-tetrahydro-1H-pyrrolo[1,2-a][1,4]diazepine-8-carboxamide] | 1 to 10 µM |
| Cc1nc(C(=O)N2CCn3cc(C(=O)NO)cc3C2)cs1 [Compound I-73, N-hydroxy-2-[(2-methyl-1,3-thiazol-4-yl)carbonyl]-1,2,3,4-tetrahydropyrrolo[1,2-a]pyrazine-7-carboxamide] | > 10 µM |
| O=C(NO)c1cc2n(c1)CCN(C(=O)c1cnn3cccnc13)C2 [Compound I-84, N-hydroxy-2-(pyrazolo[1,5-a]pyrimidin-3-ylcarbonyl)-1,2,3,4-tetrahydropyrrolo[1,2-a]pyrazine-7-carboxamide] | > 10 µM |
| CCC(C)NC(=O)N1CCn2cc(C(=O)NO)nc2C1 (centres unmarked) [Compound I-118, N7-(sec-butyl)-N2-hydroxy-5,6-dihydroimidazo[1,2-a]pyrazine-2,7(8H)-dicarboxamide] | 1 to 10 µM |

— patent US8946223B2, “Substituted hydroxamic acids and uses thereof” (Millennium Pharmaceuticals, Inc., priority 2010, dated 2015)
